Values of other authors in US5385907A, “Ointments containing FK-506 or derivatives thereof” (priority 1990, dated 1995).

Conditions: dissolved in ethanol (EP-A-315978)

C=CCC1C=C(C)CC(C)CC(OC)C2OC(O)(C(=O)C(=O)N3CCCCC3C(=O)OC(C(C)=CC3CCC(O)C(OC)C3)C(C)C(O)CC1=O)C(C)CC2OC (stereo not shown) [FK 506 substance, 17-allyl-1,14-dihydroxy-12-[2-(4-hydroxy-3-methoxycyclohexyl)-1-methylvinyl]-23,25-dimethoxy-13,19,21,27-tetramethyl-11,28-dioxa-4-azatricyclo[22.3.1.0^4,9]octacos-18-ene-2,3,10,16-tetraone]
inflammatory inhibition: effective against inflammatory inhibition
